The target of the experiment is Pancreatic triacylglycerol lipase (Sus scrofa) (UniProt P00591). Nature of the experiment: Compound was tested for inhibition of porcine pancreatic lipase.
Chain of Pancreatic triacylglycerol lipase (Sus scrofa) (P00591 whole entry, looked up): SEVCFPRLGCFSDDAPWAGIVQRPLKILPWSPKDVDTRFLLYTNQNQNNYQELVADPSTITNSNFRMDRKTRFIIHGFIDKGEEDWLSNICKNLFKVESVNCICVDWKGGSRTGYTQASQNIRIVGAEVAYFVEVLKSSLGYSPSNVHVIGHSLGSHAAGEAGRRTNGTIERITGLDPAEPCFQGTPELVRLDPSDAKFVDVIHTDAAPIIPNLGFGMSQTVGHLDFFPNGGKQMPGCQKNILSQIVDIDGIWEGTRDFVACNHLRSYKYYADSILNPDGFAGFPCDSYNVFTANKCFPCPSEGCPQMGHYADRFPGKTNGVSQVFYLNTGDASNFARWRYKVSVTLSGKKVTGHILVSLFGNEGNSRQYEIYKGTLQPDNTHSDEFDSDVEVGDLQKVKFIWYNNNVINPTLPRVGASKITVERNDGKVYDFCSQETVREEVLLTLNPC

A word on the IC50: it is the concentration that inhibits the measured activity by half. A higher IC50 goes with lower potency. Turning to `C=C1O[C@@H](C[C@H](CCCCCCCCCCC)OC(=O)[C@H](CC(C)C)NC=O)[C@@H]1CCCCCC`, the 50% inhibitory concentration (IC50) was found to be 3.44 µM. This lies in the single-digit micromolar range.

Values taken from BindingDB's records for doi:10.1016/s0960-894x(98)00140-1 (University of Connecticut, 1998).
